System: adult T. muris
Test: Ex vivo adult T. muris automated motility assay (primary/secondary screen at 100 μM and dose-response)
Parameters: species or system Trichuris muris
Details: 100 μM; for COMBINED_SCREEN_ACTIVITY: combined primary and secondary screen minus log fold change in movement, adult T. muris; for PRIMARY_SCREEN_MINUS_LOG_FOLD_CHANGE_MOVEMENT: primary screen
Experimental: Severe combined immune deficiency (SCID) mice were bred in the Biological Services Facility at the University of Manchester. Both male and female SCID mice were infected with a high dose of 200 infective embryonated T. muris eggs via oral gavage. At day 35 post-infection, groups of 5 mice were killed and their […] colons removed. Guts were opened longitudinally, washed with pre-warmed Roswell Park Memorial Institute (RPMI) 1640 media supplemented with penicillin (500U/ml) and streptomycin (500μg/ml) and adult T. muris worms gently removed using fine forceps. Worms removed from SCID mice were maintained in RPMI-1640 media supplemented with penicillin (500U/ml) and streptomycin (500μg/ml) at approximately 37°C and studied on the same day. Using fine forceps, individual live worms were placed into 96 well plates containing 75μl of RPMI-1640 medium supplemented with penicillin (500U/ml) and streptomycin (500μg/ml) plus 1% final concentration of DMSO or compound dissolved in DMSO. In the primary screen the test compound concentration was 100μM. Plates were then incubated at 37°C, 5% CO2, and motility was analysed after 24 hours. Worm movement was quantified using an automated motility assay. This system gives an estimate of worm movement in each well by thresholding and quantifying pixel intensity variance over time. An earlier version of this system has been previously described. One adult T. muris worm was used per well, with one well per compound in each replicate of the primary screen. The primary screen was repeated each week for a period of four weeks giving four independent biological replicates from separate parasite batches for each compound. Dose-response curves were calculated with the four factor log-logistic model using the R package drc. The primary screen was carried out at 100μM final concentration. Assay plates were assigned unique IDs and statistical analysis was performed without knowledge of compound identities using R scripts. Once hit wells were identified, well/plate positions were mapped to compound identities using DataWarrior [28]. […] Compounds identified as having encouraging activity from the DMSO solution samples were then resynthesized for confirmatory testing.

With `CN1C(=O)COCc2cc(Br)ccc21` [Compound 6] the COMBINED_SCREEN_ACTIVITY was -1.038 and the PRIMARY_SCREEN_MINUS_LOG_FOLD_CHANGE_MOVEMENT (adult T. muris motility) was -1.038.

With `Cc1ccc(CN2C(=O)COCc3ccccc32)cc1` [Compound 7] the COMBINED_SCREEN_ACTIVITY was -0.007203 and the PRIMARY_SCREEN_MINUS_LOG_FOLD_CHANGE_MOVEMENT (adult T. muris motility) was -0.007203.

`Cc1ccccc1-c1cccc2c1COCC(=O)N2C` [Compound 8] gave a COMBINED_SCREEN_ACTIVITY of -0.9498 and a PRIMARY_SCREEN_MINUS_LOG_FOLD_CHANGE_MOVEMENT (adult T. muris motility) of -0.9498.

`CN1C(=O)COCc2c(-c3cccc(O)c3)cccc21` [Compound 9] gave a COMBINED_SCREEN_ACTIVITY of -1.134 and a PRIMARY_SCREEN_MINUS_LOG_FOLD_CHANGE_MOVEMENT (adult T. muris motility) of -1.134.

Work on `CN1C(=O)COCc2cc(-c3cccc(C#N)c3)ccc21` [Compound 10] yielded a COMBINED_SCREEN_ACTIVITY of -1.704 and a PRIMARY_SCREEN_MINUS_LOG_FOLD_CHANGE_MOVEMENT (adult T. muris motility) of -1.704.

Molecule `Cc1ccc(-c2cccc3c2COCC(=O)N3C)cc1C` [Compound 11] has a COMBINED_SCREEN_ACTIVITY of -0.1315 and a PRIMARY_SCREEN_MINUS_LOG_FOLD_CHANGE_MOVEMENT (adult T. muris motility) of -0.1315.

Molecule `CC(C)N1C(=O)COCc2ccc(-c3ccccc3)cc21` [Compound 12] has a COMBINED_SCREEN_ACTIVITY of 1.691 and a PRIMARY_SCREEN_MINUS_LOG_FOLD_CHANGE_MOVEMENT (adult T. muris motility) of 1.691.

In the case of `CC(C)N1C(=O)COCc2ccc(-c3cccnc3)cc21` [Compound 13], the COMBINED_SCREEN_ACTIVITY was -0.8665 and the PRIMARY_SCREEN_MINUS_LOG_FOLD_CHANGE_MOVEMENT (adult T. muris motility) was -0.8665.

In the case of `COc1ccc(CN2C(=O)COCc3ccccc32)cc1` [Compound 14], the COMBINED_SCREEN_ACTIVITY was -1.77 and the PRIMARY_SCREEN_MINUS_LOG_FOLD_CHANGE_MOVEMENT (adult T. muris motility) was -1.77.

With `CN1C(=O)COCc2c(-c3cccc(CO)c3)cccc21` [Compound 15] the COMBINED_SCREEN_ACTIVITY was -0.7825 and the PRIMARY_SCREEN_MINUS_LOG_FOLD_CHANGE_MOVEMENT (adult T. muris motility) was -0.7825.

`CCCN1C(=O)COCc2cc(Br)ccc21` [Compound 16] showed a COMBINED_SCREEN_ACTIVITY of -2.129 and a PRIMARY_SCREEN_MINUS_LOG_FOLD_CHANGE_MOVEMENT (adult T. muris motility) of -2.129.

With `CC(C)N1C(=O)COCc2cc(Br)ccc21` [Compound 17] the COMBINED_SCREEN_ACTIVITY was -0.6442 and the PRIMARY_SCREEN_MINUS_LOG_FOLD_CHANGE_MOVEMENT (adult T. muris motility) was -0.6442.

Molecule `CCCN1C(=O)COCc2ccc(Br)cc21` [Compound 18] has a COMBINED_SCREEN_ACTIVITY of -1.618 and a PRIMARY_SCREEN_MINUS_LOG_FOLD_CHANGE_MOVEMENT (adult T. muris motility) of -1.618.

For `CC(C)N1C(=O)COCc2ccc(Br)cc21` [Compound 19], the COMBINED_SCREEN_ACTIVITY was -1.507 and the PRIMARY_SCREEN_MINUS_LOG_FOLD_CHANGE_MOVEMENT (adult T. muris motility) was -1.507.

For `CC(C)N1C(=O)COCc2ccc(-c3cnn(C)c3)cc21` [Compound 20], the COMBINED_SCREEN_ACTIVITY was 0.06851 and the PRIMARY_SCREEN_MINUS_LOG_FOLD_CHANGE_MOVEMENT (adult T. muris motility) was 0.06851.

`O=C1COCc2ccccc2N1Cc1ccccc1Cl` [Compound 21] gave a COMBINED_SCREEN_ACTIVITY of -1.647 and a PRIMARY_SCREEN_MINUS_LOG_FOLD_CHANGE_MOVEMENT (adult T. muris motility) of -1.647.

For `CN1C(=O)COCc2c(-c3ccc(Cl)cc3)cccc21` [Compound 22], the COMBINED_SCREEN_ACTIVITY was -0.8438 and the PRIMARY_SCREEN_MINUS_LOG_FOLD_CHANGE_MOVEMENT (adult T. muris motility) was -0.8438.

`O=C1COCc2ccccc2N1Cc1cc(F)cc(F)c1` [Compound 23] gave a COMBINED_SCREEN_ACTIVITY of -1.442 and a PRIMARY_SCREEN_MINUS_LOG_FOLD_CHANGE_MOVEMENT (adult T. muris motility) of -1.442.

With `O=C1COCc2ccc(-c3ccccc3)cc2N1CC1CC1` [Compound 24] the COMBINED_SCREEN_ACTIVITY was 7.227 and the PRIMARY_SCREEN_MINUS_LOG_FOLD_CHANGE_MOVEMENT (adult T. muris motility) was 7.227.

For `O=C1COCc2ccc(-c3cccnc3)cc2N1CC1CC1` [Compound 25], the COMBINED_SCREEN_ACTIVITY was -1.503 and the PRIMARY_SCREEN_MINUS_LOG_FOLD_CHANGE_MOVEMENT (adult T. muris motility) was -1.503.

In the case of `O=C1COCc2cc(Br)ccc2N1CC1CC1` [Compound 26], the COMBINED_SCREEN_ACTIVITY was -0.588 and the PRIMARY_SCREEN_MINUS_LOG_FOLD_CHANGE_MOVEMENT (adult T. muris motility) was -0.588.

`CN1C(=O)COCc2c(-c3ccc4c(c3)OCO4)cccc21` [Compound 27] gave a COMBINED_SCREEN_ACTIVITY of -0.9234 and a PRIMARY_SCREEN_MINUS_LOG_FOLD_CHANGE_MOVEMENT (adult T. muris motility) of -0.9234.

`COCCN1C(=O)COCc2ccc(-c3ccccc3)cc21` [Compound 28] gave a COMBINED_SCREEN_ACTIVITY of -0.7597, a PRIMARY_SCREEN_MINUS_LOG_FOLD_CHANGE_MOVEMENT (adult T. muris motility) of -1.727 and an SECONDARY_SCREEN_MINUS_LOG_FOLD_CHANGE_MOVEMENT (secondary screen, adult T. muris motility) of 0.2076.

For `CC(C)N1C(=O)COCc2ccc(-c3cccc(F)c3)cc21` [Compound 29], the COMBINED_SCREEN_ACTIVITY was 1.463 and the PRIMARY_SCREEN_MINUS_LOG_FOLD_CHANGE_MOVEMENT (adult T. muris motility) was 1.463.

Work on `COCCN1C(=O)COCc2cc(Br)ccc21` [Compound 30] yielded a COMBINED_SCREEN_ACTIVITY of 0.3958 and a PRIMARY_SCREEN_MINUS_LOG_FOLD_CHANGE_MOVEMENT (adult T. muris motility) of 0.3958.

`COCCN1C(=O)COCc2ccc(Br)cc21` [Compound 31] gave a COMBINED_SCREEN_ACTIVITY of -1.486 and a PRIMARY_SCREEN_MINUS_LOG_FOLD_CHANGE_MOVEMENT (adult T. muris motility) of -1.486.

`COc1cc(F)ccc1-c1cccc2c1COCC(=O)N2C` [Compound 32] was tested, and the COMBINED_SCREEN_ACTIVITY was -1.894 and the PRIMARY_SCREEN_MINUS_LOG_FOLD_CHANGE_MOVEMENT (adult T. muris motility) was -1.894.

`CN1C(=O)COCc2c(-c3ccc(F)c(Cl)c3)cccc21` [Compound 33] showed a COMBINED_SCREEN_ACTIVITY of 1.432 and a PRIMARY_SCREEN_MINUS_LOG_FOLD_CHANGE_MOVEMENT (adult T. muris motility) of 1.432.

— publication PMC5321434, “Dihydrobenz[e][1,4]oxazepin-2(3H)-ones, a new anthelmintic chemotype immobilising whipworm and reducing infectivity in vivo” (PLoS Neglected Tropical Diseases, 2017)
